Data: US9381171B2 (priority 2013, dated 2016)

Experiments:
[1] = system: SOL muscle of the hind-limb of a mouse; test: Muscle fatigability of SOL muscle separated from fed mice (FIG. 7); type: in vivo; conditions: 150 Hz, 100 V, stimulation every 2 seconds for 30 seconds
Method: (§1) The SOL muscle was separated from a female mouse (which weighs about 20 g) aged about 3 months. The mouse was anesthetized by sodium pentobarbital injection (100 mg/kg body weight). The SOL muscle, which is a type I muscle, was separated by paying attention to each hind-limb of the mouse while maintaining ligaments from both hind-limbs without damaging the SOL muscle. Then, the separated SOL muscle was put in an oxygen-treated Ringer's solution (118 mM NaCl, 4.75 mM KCl, 2.5 mM CaCl2, 1.18 mM MgSO4, 1.18 mM NaH2PO4, 24.8 mM NaHCO3, 10 mM glucose, and 0.02 g/l tubocurarine chloride, 25° C., pH 7.4) (Sigma Aldrich), set, and stabilized. One side of the separated SOL muscle was filled with the Ringer's solution to fix the separated SOL muscle on a tissue bath with smooth oxygen supply while the other side of the separated SOL muscle was fixed on a FT03 isometric force transducer (Grass Instruments, West Warwick, USA). Here, the muscle twitching was adjusted according to the intensity of the electric field stimulation. […] Here, the muscle contractility value (mN) represents the muscle twitch contraction.

[2] = system: phosphorylated FOXO1-p (Ser256); test: Factors of atrophy: western blot of FOXO1-p in C2C12 cells (FIG. 4); type: cell-based, mouse; conditions: C2C12, 0.1, 1, 20 μM dapsone 12 hours, then 1 μM dexamethasone 2 hours
Method: (§2) A C2C12 cell line (mouse gastrocnemius muscle, ATCC®CRL-1772™) was inoculated in a 10% FBS/DMEM culture medium in a 60 mm culture dish. When the cells were grown to about 70% confluency in a 5% CO2 incubator at a temperature of 37° C., the culture medium was changed to a 2% FBS/DMEM culture medium to allow complete differentiation after incubation for 4 days. The C2C12 cell line is a mouse myoblast cell line obtained through continuous culture of myoblasts that are cultured from the gastrocnemius muscle of C3H mice. […] Here, 1 μM of dexamethasone was added thereto and cultured together for 2 hours as described above.
(§3) After the medium was removed from the culture and the cells were collected therefrom, 500 μl of an RIPA lysis buffer (including 20 mM Tris-HCl (pH 7.5), 150 mM NaCl, 1 mM Na2EDTA, 1 mM EGTA, 1% NP-40, 1% sodium deoxycholate, 2.5 mM sodium pyrophosphate, 1 mM beta-glycerophosphate, 1 mM Na3VO4, and 1 μg/ml leupeptin) was added for lysing the cells. […]

[3] = system: MURF-1; test: MuRF-1 protein level by western blot in C2C12 cells (FIG. 5B); type: cell-based, mouse; conditions: C2C12, 0.1, 1 or 20 μM dapsone and 1 μM dexamethasone; concentration-dependent
Method: as §2, with “for 24” for “for 2”
(§4) After the medium was removed from the culture and the cells were collected therefrom, 500 μl of an RIPA lysis buffer was added for lysing the cells. Then, the resulting lysates were subjected to electrophoresis and western blot analysis with respect to Atrogin-1, MuRF-1, and α-tubulin. A primary antibody used in the western blot analysis was a rabbit anti-Atrogin-1 antibody (ECM Bioscience), a MuRF-1 antibody (GeneTax), and α-tubulin (Cell Signaling Technology, USA) antibody, and a secondary antibody used in the western blot analysis was an HRP-conjugated anti-rabbit antibody (Jackson ImmunoResearch).

[4] = system: MURF-1 mRNA; test: MuRF-1 mRNA level by real time PCR in C2C12 cells (FIG. 5A); type: cell-based, mouse; conditions: C2C12, 20 μM dapsone and 1 μM dexamethasone, 24 hours; normalized to GAPDH mRNA
Method: (§5) Here, 1 μM of dexamethasone was added thereto and incubated for 24 hours. Then, the amounts of the expressed mRNA of the Atrogin-1 and MuRF-1 among the C2C12 cells were confirmed. Here, the complete RNA was separated by using a Trizol reagent (Invitrogen). The analysis of the mRNAs of Atrogin-1 and MuRF-1 was performed by using a real time […] instrument, BioRad), which is a device for measuring reverse transcription and SYBR Green. The resulting amounts then normalize to the amount of GAPDH mRNA. The amplification of Atrogin-1, MuRF-1, and GAPDH mRNAs was performed by using an oligonucleotide primer set of SEQ ID NOS: 1 and 2, an oligonucleotide primer set of SEQ ID NOS: 3 and 4, and an oligonucleotide primer set of SEQ ID NOS: 5 and 6.

[5] = system: Atrogin-1 mRNA; test: Atrogin-1 mRNA level by real time PCR in C2C12 cells (FIG. 5A); type: cell-based, mouse; conditions: C2C12, 20 μM dapsone and 1 μM dexamethasone, 24 hours; normalized to GAPDH mRNA
Method: as §5

[6] = system: SOL muscle of the hind-limb of a mouse; conditions: mouse fed 4 mg/kg dexamethasone and 2 mg/kg dapsone for 3 weeks, 0.2 Hz (100 V)
Method: as §1

[7] = system: phosphorylated Akt-p (Ser473); test: Factors of atrophy: western blot of Akt-p in C2C12 cells (FIG. 4); type: cell-based, mouse; conditions: C2C12, 0.1, 1, 20 μM dapsone 12 hours, then 1 μM dexamethasone 2 hours; concentration-dependent
Method: as §2, §3

[8] = system: Atrogin-1; test: Atrogin-1 protein level by western blot in C2C12 cells (FIG. 5B); type: cell-based, mouse; conditions: C2C12, 0.1, 1 or 20 μM dapsone and 1 μM dexamethasone; concentration-dependent
Method: as §2, with “for 24” for “for 2”
as §4

## C[C@@H]1C[C@H]2[C@@H]3CCC4=CC(=O)C=C[C@]4(C)[C@@]3(F)[C@@H](O)C[C@]2(C)[C@@]1(O)C(=O)CO [dexamethasone]
[1]; upon intake of dexamethasone
  degree of the muscle fatigability: increased

## Nc1ccc(S(=O)(=O)c2ccc(N)cc2)cc1 [dapsone, 4-[(4-aminobenzene)sulfonyl]aniline]
[2]
  amount of the FOXO1-p protein: decreased
[3]
  protein level of MURF-1: significantly decreased
[4]
  mRNA level of MURF-1: significantly decreased
[1]; intake of both dexamethasone and dapsone
  decrease of muscle fatigability compared with intake of only dexamethasone: 20.3%
[5]
  mRNA level of Atrogin-1: significantly decreased
[6]
  increase of twitch contractility compared with mouse fed on dexamethasone: 43.7%
[7]
  amount of the Akt-p: increased
[8]
  protein level of Atrogin-1: significantly decreased
